Measurements taken from patent publication US8734673B2, “Boron selective ionic liquids and polymeric ionic liquids, methods of making and methods of use thereof” (The University of Toledo, priority 2008, dated 2014).

Key:
Assay type in all cases: physicochemical
[1] = Refractive index, Abbe refractometer
Experimental: (§1) The densities of the ionic liquids […] were determined at 23° C. by placing 2.0 mL of the ionic liquid in a 2.0 mL volumetric tube and weighing by difference. The melting points of the ionic liquids were determined using a Perkin Elmer Pyris 1 Differential Scanning Calorimeter (Boston, Mass.). Typical methods involved using a 10° C./min temperature ramp to determine and identify the first and second order thermal transitions. […] For solid compounds, the melting points were verified using a capillary melting point apparatus. Refractive index measurements were conducted at 23° C. using a Bausch & Lomb Abbe-3L refractometer.

[2] = Surface tension, DuNuoy tensiometer; details: room temperature (23° C.)
Experimental: Surface tension values were measured at room temperature (23° C.) using a Model 20 DuNuoy Tensiometer (Fisher Scientific, Fair Lawn, N.J.) equipped with a platinum-iridium ring with a mean circumference of 5.940 cm and a ring/wire radius of 53.21.

[3] = Density by weighing 2.0 mL of ionic liquid
Experimental: as §1

[4] = Thermal stability of thin film in fused silica capillary, flame ionization detection
Experimental: Thermal stabilities were measured by immobilizing an approximate 0.15-0.20 microns film of the ionic liquid on the inner wall of a fused silica capillary. The capillary was then heated slowly in an oven and a very sensitive flame ionization detector (or mass spectrometer) used to detect any volatilization or decomposition of the ionic liquid. There are several advantages of using this set-up to measure the thermal stabilities of ionic liquids. The thermal stability is measured in the absence of oxygen by purging the capillary with a continuous flow of an inert gas such as helium, hydrogen, or nitrogen. […] Finally, this approach can use mass spectrometry detection to determine the likely volatilization/decomposition products.

[5] = Solvation interaction parameters by inverse gas-liquid chromatography (Abraham model)
Experimental: The preparation of the capillary columns for inverse gas-liquid chromatographic analysis was performed using a previously described procedure. All capillary columns had efficiencies between 2100 to 2500 plates/meter. Characterization of the capillary columns and probe molecule descriptions are listed in supplemental information. Multiple linear regression analysis (MLRA) and statistical calculations were performed using the program Analyse-it (Microsoft, USA).
Solvation Characteristics. We have previously reported that the Abraham solvation model, a linear free energy approach that utilizes inverse gas-liquid chromatography to describe the solvation properties of a liquid, can be used to characterize room temperature ionic liquids. Described by equation 1, the model provides the so-called “interaction parameters” (r, s, a, b, l) by using multiple linear regression analysis to fit the retention factor (k, determined chromatographically) to the solute descriptors (R2, π2^Hα2H, β2^H, log L^16) for a wide variety of probe solute molecules. […]
Previously we characterized a large number of room temperature ionic liquids in terms of multiple solvation interactions using the solvation parameter model, shown in equation log k=c+rR2+sπ2^H+aα2^H+bβ2^H+l log L^16 [3] This approach utilizes inverse gas-liquid chromatography and allows the use of a large number of probe molecules to deconvolute solute retention in terms of the type and magnitude of individual solvation interactions. The solute descriptors (R2, π2^H, α2^H, .β2^H, log L^16) from Equation 3 are obtained from the literature for many probe molecules containing a variety of functional groups. The retention factor is determined chromatographically. The solute descriptors and retention factors are subjected to multiple linear regression analysis to obtain the interaction parameter coefficients (r, s, a, b, l), which ultimately characterize the stationary phase: r is the ability of the diionic liquid containing-stationary phase to interact with .π0 and n electrons of the solute, s is a measure of the dipolarity/polarizability of the diionic liquid containing-stationary phase, a defines the diionic liquid containing-stationary phase hydrogen bond basicity, b is a measure of the hydrogen bond acidity, and l refers to the ability of the diionic liquid containing-stationary phase to separate adjacent members of a homologous series.
Test solutes used to determine interaction parameters and solvation thermodynamics were dissolved in dichloromethane. […] Split injection and flame ionization detection were utilized with injection and detection temperatures of 250° C. Helium was used as the carrier gas with a column inlet pressure of 3.1 psi and flow rate of 1.0 mL/min. Methane was used to determine the dead volume of the column. Multiple linear regression analysis and statistical calculations were performed using the program Analyze-it (Microsoft).

1,9-di(2,3-dimethylimidazolium)nonane di-tetrafluoroborate [C9(m2im)2-BF4]
Refractive Index ([1]; 23° C., Tables 1 and 2): 1.456 | Surface Tension [2]: 58.1 dynes/cm | Density ([3]; 23° C., Tables 1 and 2): 1.31 g/mL

C[N+]1(CCCCCCCCC[N+]2(C)CCCC2)CCCC1.O=S(=O)([N-]S(=O)(=O)C(F)(F)F)C(F)(F)F.O=S(=O)([N-]S(=O)(=O)C(F)(F)F)C(F)(F)F [C9(mpy)2-NTf2, 1,9-di(methylpyrrolidinium)nonane di-bis[(trifluoromethyl)sulfonyl]imidate]
stable liquid range [4]: about −4 °C to >400 °C | Interaction parameter a (hydrogen bond basicity) ([5]; 40° C.): 1.98 | Interaction parameter b (hydrogen bond acidity) ([5]; 40° C.): 0.32 | Interaction parameter c ([5]; 40° C.): −2.83 | Interaction parameter l (dispersion forces) ([5]; 40° C.): 0.62 | Interaction parameter r (interaction via nonbonding and π-electrons) ([5]; 40° C.): 0.27 | Interaction parameter s (dipolarity/polarizability) ([5]; 40° C.): 1.71 | Interaction parameter a (hydrogen bond basicity) ([5]; 70° C.): 1.65 | Interaction parameter b (hydrogen bond acidity) ([5]; 70° C.): 0.35 | Interaction parameter c ([5]; 70° C.): −2.85 | Interaction parameter l (dispersion forces) ([5]; 70° C.): 0.48 | Interaction parameter r (interaction via nonbonding and π-electrons) ([5]; 70° C.): 0.34 | Interaction parameter s (dipolarity/polarizability) ([5]; 70° C.): 1.52 | Interaction parameter a (hydrogen bond basicity) ([5]; 100° C.): 1.48 | Interaction parameter b (hydrogen bond acidity) ([5]; 100° C.): 0.15 | Interaction parameter c ([5]; 100° C.): −2.99 | Interaction parameter l (dispersion forces) ([5]; 100° C.): 0.42 | Interaction parameter r (interaction via nonbonding and π-electrons) ([5]; 100° C.): 0.23 | Interaction parameter s (dipolarity/polarizability) ([5]; 100° C.): 1.49

C=Cn1cc[n+](CCCCCCCCCCCC)c1.O=S(=O)([N-]S(=O)(=O)C(F)(F)F)C(F)(F)F [Monomer 3, 1-vinyl-3-dodecylimidazolium bis[(trifluoromethane)sulfonyl]imidate]
Refractive Index ([1]; monomers/crosslinkers, Table A): 1.448 | Density ([3]; monomers/crosslinkers, Table A): 1.23 g/mL
